Laboratory results as given in US20220079966A1, “HYALURONAN SYNTHESIS INHIBITION FOR TREATING AUTOIMMUNE, INFLAMMATORY, FIBROTIC, OR PROLIFERATIVE DISEASES OR DISORDERS” (The Board of Trustees of the Leland Stanford Junior …, priority 2018, published 2022).

Tests used:
[1] = HPLC of 4-MU and metabolites in serum of mice fed 4-MU chow for two weeks; assay type: in vivo; details: mice fed 4-MU for two weeks
Source text: As a result of efficient glucuronidation of 4-MU in the liver and intestines by multiple UDP-glucuronosyltransferases (UGTs), the predominant form present systemically in mice on oral 4-MU chow is 4-MUG, as has been reported previously (Mulder G J, et al., Biochem Pharmacol. 1985; 34(8):1325-1329). For example, FIG. 1A illustrates molecular structures for 4-MU and its primary metabolites, 4-MUG and 4-MUS. […] N=3 animals per group. […] N=3 animals per group.

CHO-HAS3 cells = test: HA production by CHO-HAS3 cells engineered to overexpress HAS3; assay type: cell-based; details: 48 hours; non-hydrolyzable 4-MUG at comparable doses to 4-MU or conventional 4-MUG
Method: Samples were thawed and assayed for HA levels using a modified HA ELISA as previously described (Nagy N., et al., J. Clin. Invest. 2015; 125(10):3928-3940). Each sample was analyzed in triplicate with a mean value obtained per sample. For cell normalization, LI-COR CellTag™ 700 Stain was used according to the manufactures protocol.
To test whether 4-MUG has bioactivity independently of any possible conversion to 4-MU, a non-hydrolyzable version of 4-MUG was generated (FIG. 5A).

blood leukocytes = test: Leukocyte 4-MU uptake in mice on oral 4-MU (flow cytometry, Pacific Blue channel); assay type: in vivo, C57Bl/6J mice; details: blood leukocyte subsets, days 0, 2, 7, 14
Source text: Next, the uptake of 4-MU by different leukocyte subsets was examined. To this end, mice were fed 4-MU and 4-MU signal was examined on blood leukocytes from representative animals at intervals of 0, 2, 7, and 14 days after the initiation of 4-MU treatment. […] Bold histograms depict signal in 4-MU treated mice, shaded histograms depict background Pacific Blue signal in untreated mice. Cell surface markers were stained to examine 4-MU uptake by multiple cell types, including CD4+ T-cells (CD3+CD4+), CD8+ T-cells (CD3+CD8+), B-cells (I-A/I-E+B220+) dendritic cells (DC; I-A/I-E+CD11c+), macrophages (Mc); I-A/I-E+CD11c−), neutrophils (Ly6G/C+CD14+) and monocytes (Ly6G/C-CD14+).
C57Bl/6J mice were treated with 4-MU and leukocytes from representative animals were isolated from the blood at baseline (before 4-MU treatment) and at intervals of 2, 7, and 14 days after the initiation of chow. […] To detect fluorescence emitted by 4-MU using flow cytometry on specific leukocyte subsets, peripheral blood red cells were lysed using Ammonium-Chloride-Potassium (ACK) buffer, and leukocytes were stained with the following fluorochrome-conjugated antibodies: BV650-CD3 (17-A2), BV785-CD4 (RM4-5), APC-CD11c (N418), PE-CD14 (Sa2-8), PE-Cy7-Ly-6G/C (RB6-8C5), PE-CyS. […] Samples were run on a BD™ LSRII flow cytometer (Beckon Dickinson) and data was analyzed using FlowJo software (TreeStar).

median serum concentration of 4-MUG relative to parent compound 4-MU [1] | time period of oral treatment required for leukocyte populations to take up 4-MU (blood leukocytes) | Structure (SMILES) | HA production by CHO-HAS3 cells (CHO-HAS3 cells)
about 150 fold |  | Cc1cc(=O)oc2cc(O[C@@H]3O[C@H](C(=O)O)[C@@H](O)[C@H](O)[C@H]3O)ccc12 [4-MUG, 4-methylumbelliferone-glucuronide] | directly inhibits HA synthesis
 | 1-2 weeks | Cc1cc(=O)oc2cc(O)ccc12 [4-MU, 4-methylumbelliferone] | 
